Data taken from patent publication US20250376464A1 (Trawsfynydd Therapeutics, Inc., priority 2022, published 2025).

Target: SARS-CoV2-Mpro (Severe acute respiratory syndrome coronavirus 2 (2019-nCoV) (SARS-CoV-2), UniProt P0DTD1)
Assay: Primary assay: SARS-CoV2-Mpro enzymatic activity inhibition
Type: biochemical
Settings: enzyme preincubated with compound for 20 min; slope of linear portion of signal
Procedure: Example A. Primary Assay Used to Determine Potency of SARS-CoV2-Mpro Enzymatic Activity Inhibition
• (1) Deliver 2× Enzyme • (2) Deliver buffer into No Enzyme wells • (3) Deliver compounds in 100% DMSO by using Acoustic technology (Echo550; nanoliter range) • (4) Incubate for 20 min • (5) Deliver 2× Substrate to initiate the reaction • (6) Spin & shake, start measuring in EnVision at rt; 5 min interval for 25 (2 hours) • (7) Analyze data by taking slope (signal/time) of linear portion of measurement • (8) Slope is calculated by using Excel, and curve fits are performed using Prism software.
The % inhibition was then used to calculate the IC50 values. The IC50 values are shown in Table A, wherein “A” corresponds to IC50<10.0 nm, “B” corresponds to 10.0 nm≤IC50<50.0 nm, “C” corresponds to 50.0 nm≤IC50<100.0 nm, “D” corresponds to 100.0 nm≤IC50<500.0 nm, and “E” corresponds to 500.0 nm≤IC50<1000.0 nm, and “F” corresponds to 1000.0 nm≤IC50.

Compound	IC50 [nM]
CC(C)(C)[C@H](NS(C)(=O)=O)C(=O)N1C[C@H]2C([C@H]1C(=O)N[C@H](C#N)C[C@@H]1CCNC1=O)C2(C)C (stereo in doubt) [Compound 201, (1R,2S,5S)—N—((S)-1-Cyano-2-((S)-2-oxopyrrolidin-3-yl)ethyl)-3-((S)-3,3-dimethyl-2-(methylsulfonamido)butanoyl)-6,6-dimethyl-3-azabicyclo[3.1.0]hexane-2-carboxamide]	10 to 50
CCCN(C(=O)[C@@H]1[C@@H]2[C@H](CN1C(=O)[C@@H](NC(=O)C(F)(F)F)C(C)(C)C)C2(C)C)[C@H](C#N)C[C@@H]1C(=O)Nc2ccccc21 [Compound 248, (1R,2S,5S)-N-[(1S)-1-cyano-2-(2-oxoindolin-3-yl)ethyl]-3-[(2S)-3,3-dimethyl-2-[(2,2,2-trifluoroacetyl)amino]butanoyl]-6,6-dimethyl-N-propyl-3-azabicyclo[3.1.0]hexane-2-carboxamide]	≥ 1000
CC(C)(C)[C@H](NC(=O)C(F)(F)F)C(=O)N1C[C@H]2C([C@H]1C(=O)N[C@H](C#N)CC1C(=O)Nc3ccccc31)C2(C)C (stereo in doubt) [Compound 217, (1R,2S,5S)—N-((1S)-1-Cyano-2-(2-oxoindolin-3-yl)ethyl)-3-((S)-3,3-dimethyl-2-(2,2,2-trifluoroacetamido)butanoyl)-6,6-dimethyl-3-azabicyclo[3.1.0]hexane-2-carboxamide]	< 10
CC(C)(C)[C@H](NC(=O)C(F)(F)F)C(=O)N1CCC2(CC2)CC1C(=O)N[C@H](C#N)C[C@@H]1CCNC1=O (mixture of isomers) [Compound 206, N—((S)-1-Cyano-2-((S)-2-oxopyrrolidin-3-yl)ethyl)-6-((S)-3,3-dimethyl-2-(2,2,2-trifluoroacetamido)butanoyl)-6-azaspiro[2.5]octane-5-carboxamide]	10 to 50
CC(C)(C)[C@H](NC(=O)C(F)(F)F)C(=O)N1C[C@H]2C([C@H]1C(=O)N[C@H](C#N)CC1C(=O)Nc3ccc(F)cc31)C2(C)C (stereo in doubt) [Compound 236, (1S,2S,5S)-N-[(1S)-1-cyano-2-(5-fluoro-2-oxo-indolin-3-yl)ethyl]-3-[(2S)-3,3-dimethyl-2-[(2,2,2-trifluoroacetyl)amino]butanoyl]-6,6-dimethyl-3-azabicyclo[3.1.0]hexane-2-carboxamide]	10 to 50
COC(=O)N[C@H](C(=O)N1C[C@H]2C([C@H]1C(=O)N[C@H](C#N)CC1C(=O)Nc3ccccc31)C2(C)C)C(C)(C)C (stereo in doubt) [Compound 243, Methyl N-[(1S)-1-[(1S)-2-[[(1S)-1-cyano-2-(2-oxoindolin-3-yl)ethyl]carbamoyl]-6,6-dimethyl-3-azabicyclo[3.1.0]hexane-3-carbonyl]-2,2-dimethyl-propyl]carbamate]	< 10
CC(C)(C)[C@H](NS(C)(=O)=O)C(=O)N1C[C@H]2C([C@H]1C(=O)N[C@H](C#N)CC1C(=O)Nc3ccccc31)C2(C)C (stereo in doubt) [Compound 237, (1S,2S,5S)-N-[(1S)-1-cyano-2-(2-oxoindolin-3-yl)ethyl]-3-[(2S)-2-(methanesulfonamido)-3,3-dimethyl-butanoyl]-6,6-dimethyl-3-azabicyclo[3.1.0]hexane-2-carboxamide]	< 10
CC(C)(C)[C@H](NC(=O)C(F)(F)F)C(=O)N1C[C@H]2[C@H]([C@H]1C(=O)NC(C#N)CC1C(=O)Nc3ccccc31)C2(C)C (stereo partly drawn) [Compound 226, (1S,2S,5S)—N-[1-cyano-2-(2-oxoindolin-3-yl)ethyl]-3-[(2S)-3,3-dimethyl-2-[(2,2,2-trifluoroacetyl)amino]butanoyl]-6,6-dimethyl-3-azabicyclo[3.1.0]hexane-2-carboxamide]	< 10
CN(C(=O)[C@@H]1C2[C@H](CN1C(=O)[C@@H](NC(=O)C(F)(F)F)C(C)(C)C)C2(C)C)[C@H](C#N)CC1C(=O)Nc2ccccc21 (stereo in doubt) [Compound 231, (1S,2S,5S)-N-[(1S)-1-cyano-2-(2-oxoindolin-3-yl)ethyl]-3-[(2S)-3,3-dimethyl-2-[(2,2,2-trifluoroacetyl)amino]butanoyl]-N,6,6-trimethyl-3-azabicyclo[3.1.0]hexane-2-carboxamide]	50 to 100
CC(C)(C)[C@H](NC(=O)C(F)(F)F)C(=O)N1C[C@H]2C([C@H]1C(=O)NC(C#N)CC1(F)C(=O)Nc3ccccc31)C2(C)C (stereo in doubt) [Compound 227, (1S,2S,5S)-N-[1-cyano-2-(3-fluoro-2-oxo-indolin-3-yl)ethyl]-3-[(2S)-3,3-dimethyl-2-[(2,2,2-trifluoroacetyl)amino]butanoyl]-6,6-dimethyl-3-azabicyclo[3.1.0]hexane-2-carboxamide]	10 to 50
COc1ccc2c(c1)C(C[C@@H](C#N)NC(=O)[C@@H]1[C@H]3[C@H](CN1C(=O)[C@@H](NC(=O)C(F)(F)F)C(C)(C)C)C3(C)C)C(=O)N2 (stereo partly drawn) [Compound 221, (1S,2S,5S)-N-[(1S)-1-cyano-2-(5-methoxy-2-oxo-indolin-3-yl)ethyl]-3-[(2S)-3,3-dimethyl-2-[(2,2,2-trifluoroacetyl)amino]butanoyl]-6,6-dimethyl-3-azabicyclo[3.1.0]hexane-2-carboxamide]	< 10
CC(C)(C)[C@H](NC(=O)C(F)(F)F)C(=O)N1C[C@H]2C(C1C(=O)N[C@H](C#N)CC1(F)C(=O)Nc3ccccc31)C2(C)C (stereo in doubt) [Compound 228, (1S,2S,5S)-N-[(1S)-1-cyano-2-(3-fluoro-2-oxo-indolin-3-yl)ethyl]-3-[(2S)-3,3-dimethyl-2-[(2,2,2-trifluoroacetyl)amino]butanoyl]-6,6-dimethyl-3-azabicyclo[3.1.0]hexane-2-carboxamide]	10 to 50
CC(C)(C)[C@H](NC(=O)C(F)(F)F)C(=O)N1C[C@H]2[C@H]([C@H]1C(=O)N[C@H](C#N)CC1C(=O)Nc3cc(Cl)ccc31)C2(C)C (stereo partly drawn) [Compound 219, (1S,2S,5S)-N-[(1S)-2-(6-chloro-2-oxo-indolin-3-yl)-1-cyano-ethyl]-3-[(2S)-3,3-dimethyl-2-[(2,2,2-trifluoroacetyl)amino]butanoyl]-6,6-dimethyl-3-azabicyclo[3.1.0]hexane-2-carboxamide]	10 to 50
CCOC(=O)N[C@H](C(=O)N1C[C@H]2C([C@H]1C(=O)N[C@H](C#N)CC1C(=O)Nc3ccccc31)C2(C)C)C(C)(C)C (stereo in doubt) [Compound 244, Ethyl N-[(1S)-1-[(1S)-2-[[(1S)-1-cyano-2-(2-oxoindolin-3-yl)ethyl]carbamoyl]-6,6-dimethyl-3-azabicyclo[3.1.0]hexane-3-carbonyl]-2,2-dimethyl-propyl]carbamate]	10 to 50
CC(C)(C)[C@H](NC(=O)C(F)(F)F)C(=O)N1C[C@H]2[C@H]([C@H]1C(=O)N[C@H](C#N)Cn1nnc3ccccc31)C2(C)C [Compound 308, (1S,2S,5S)-N-[(1S)-2-(benzotriazol-1-yl)-1-cyano-ethyl]-3-[(2S)-3,3-dimethyl-2-[(2,2,2-trifluoroacetyl)amino]butanoyl]-6,6-dimethyl-3-azabicyclo[3.1.0]hexane-2-carboxamide]	≥ 1000
CC(C)CCN(C(=O)[C@@H]1[C@@H]2[C@H](CN1C(=O)[C@@H](NC(=O)C(F)(F)F)C(C)(C)C)C2(C)C)[C@H](C#N)C[C@@H]1C(=O)Nc2ccccc21 [Compound 247, (1R,2S,5S)-N-[(1S)-1-cyano-2-(2-oxoindolin-3-yl)ethyl]-3-[(2S)-3,3-dimethyl-2-[(2,2,2-trifluoroacetyl)amino]butanoyl]-N-isopentyl-6,6-dimethyl-3-azabicyclo[3.1.0]hexane-2-carboxamide]	≥ 1000
Cc1ccc2c(c1)C(C[C@@H](C#N)NC(=O)[C@@H]1[C@H]3[C@H](CN1C(=O)[C@@H](NC(=O)C(F)(F)F)C(C)(C)C)C3(C)C)C(=O)N2 (stereo partly drawn) [Compound 220, (1S,2S,5S)-N-[(1S)-1-cyano-2-(5-methyl-2-oxo-indolin-3-yl)ethyl]-3-[(2S)-3,3-dimethyl-2-[(2,2,2-trifluoroacetyl)amino]butanoyl]-6,6-dimethyl-3-azabicyclo[3.1.0]hexane-2-carboxamide]	10 to 50
CC(C)(C)[C@H](NC(=O)C(F)(F)F)C(=O)N1C[C@H]2C([C@H]1C(=O)N[C@H](C#N)C[C@]1(C)C(=O)Nc3ccccc31)C2(C)C (stereo in doubt) [Compound 239, (1S,2S,5S)-N-[1-cyano-2-(3-methyl-2-oxo-indolin-3-yl)ethyl]-3-[(2S)-3,3-dimethyl-2-[(2,2,2-trifluoroacetyl)amino]butanoyl]-6,6-dimethyl-3-azabicyclo[3.1.0]hexane-2-carboxamide]	≥ 1000
CCOC(=O)N[C@@H](CC(C)C)C(=O)N1C[C@H]2C([C@H]1C(=O)N[C@H](C#N)CC1C(=O)Nc3ccccc31)C2(C)C (stereo in doubt) [Compound 246, ethyl N-[(1S)-1-[(1S,2S,5S)-2-[[(1S)-1-cyano-2-(2-oxoindolin-3-yl)ethyl]carbamoyl]-6,6-dimethyl-3-azabicyclo[3.1.0]hexane-3-carbonyl]-3-methyl-butyl]carbamate]	10 to 50
Cc1cccc2c1C(C[C@@H](C#N)NC(=O)[C@@H]1C3[C@H](CN1C(=O)[C@@H](NC(=O)C(F)(F)F)C(C)(C)C)C3(C)C)C(=O)N2 (stereo in doubt) [Compound 234, (1S,2S,5S)-N-[(1S)-1-cyano-2-(4-methyl-2-oxo-indolin-3-yl)ethyl]-3-[(2S)-3,3-dimethyl-2-[(2,2,2-trifluoroacetyl)amino]butanoyl]-6,6-dimethyl-3-azabicyclo[3.1.0]hexane-2-carboxamide]	500 to 1000
